{
  "source": "patent US5981489A",
  "about": "“Non-aqueous protic peptide formulations” (Alza Corporation, priority 1997, dated 1999)",
  "assay_type_in_all_cases": "physicochemical",
  "key": {"[1]": {"assay": "Stability of goserelin formulations, one month at 37° C., RP-HPLC", "conditions": "for % CONCENTRATION: method called unreliable", "procedure": "(§1) Stability samples were analyzed using RP-HPLC. The area under the curve for the leuprolide peak divided by the sum of the areas under the curve of all peaks gave % purity. [It should be noted that the data for % concentration presented with the % purity data (Examples 6, 8, 9 and 10) are inconclusive. The analysis methods used to determine % concentration in these experiments were unreliable.]\nFormulations of 40-45% (w/w) goserelin in either PEG 600 or PG/acetate buffer (30:70) were prepared as described above and placed in polymeric containers. The containers were stored at 37° C. for one month in an incubator. The samples were analyzed using RP-HPLC to determine the chemical stability of the aged formulations."}, "[2]": {"assay": "Gelation of non-aqueous protic solvent formulations on adding polar aprotic solvent", "from_the_text": "Thus, these solvents have an anti-gellant effect."}, "[3]": {"assay": "Stability of nafarelin formulations, one month at 37° C., RP-HPLC", "procedure": "as §1\nFormulations of 15% (w/w) nafarelin in either PEG 600 or propylene glycol were prepared as described above for leuprolide and placed in polymeric containers.\nThe containers were stored at 37° C. for one month in an incubator.\nThe samples were analyzed using RP-HPLC to determine the chemical stability of the aged formulations."}, "[4]": {"conditions": "40-45% (w/w) in vehicle PEG 600, one month at 37° C."}, "[5]": {"conditions": "40-45% (w/w) in vehicle PG/Acetate Buffer(30:70), one month at 37° C."}, "[6]": {"conditions": "15% (w/w) in vehicle PEG 600, one month at 37° C."}, "[7]": {"conditions": "15% (w/w) in vehicle PG, one month at 37° C."}},
  "data": [
    {"compound": "CC(C)C[C@H](NC(=O)[C@@H](COC(C)(C)C)NC(=O)[C@H](Cc1ccc(O)cc1)NC(=O)[C@H](CO)NC(=O)[C@H](Cc1c[nH]c2ccccc12)NC(=O)[C@H](Cc1cnc[nH]1)NC(=O)[C@@H]1CCC(=O)N1)C(=O)N[C@@H](CCCNC(=N)N)C(=O)N1CCC[C@H]1C(=O)NNC(N)=O", "note": "[goserelin]", "values": [
      {"measurement": "% PURITY", "setting": "[1]; [4]", "result": 99.3, "unit": "%"},
      {"measurement": "% CONCENTRATION", "setting": "[1]; [4]", "result": 23.6, "unit": "%"},
      {"measurement": "% PURITY", "setting": "[1]; [5]", "result": 98.2, "unit": "%"},
      {"measurement": "% CONCENTRATION", "setting": "[1]; [5]", "result": 49.7, "unit": "%"},
      {"measurement": "effect of adding polar aprotic solvents such as DMSO on gelation of the formulation", "setting": "[2]", "result": "prevents gelation"}
    ]},
    {"compound": "CCNC(=O)[C@@H]1CCCN1C(=O)[C@H](CCCNC(=N)N)NC(=O)[C@H](CC(C)C)NC(=O)[C@@H](CC(C)C)NC(=O)[C@H](Cc1ccc(O)cc1)NC(=O)[C@H](CO)NC(=O)[C@H](Cc1c[nH]c2ccccc12)NC(=O)[C@H](Cc1c[nH]cn1)NC(=O)[C@@H]1CCC(=O)N1", "note": "[leuprolide]", "values": [
      {"measurement": "effect of adding polar aprotic solvents such as DMSO on gelation of the formulation", "setting": "[2]", "result": "prevents gelation"}
    ]},
    {"compound": "CC(C)C[C@H](NC(=O)[C@@H](Cc1ccc2ccccc2c1)NC(=O)[C@H](Cc1ccc(O)cc1)NC(=O)[C@H](CO)NC(=O)[C@H](Cc1c[nH]c2ccccc12)NC(=O)[C@H](Cc1c[nH]cn1)NC(=O)[C@@H]1CCC(=O)N1)C(=O)N[C@@H](CCCNC(=N)N)C(=O)N1CCC[C@H]1C(=O)NCC(N)=O", "note": "[nafarelin]", "values": [
      {"measurement": "% CONCENTRATION", "setting": "[3]; [6]", "result": 15.8, "unit": "%"},
      {"measurement": "% PURITY", "setting": "[3]; [6]", "result": 99.4, "unit": "%"},
      {"measurement": "% CONCENTRATION", "setting": "[3]; [7]", "result": 12.9, "unit": "%"},
      {"measurement": "% PURITY", "setting": "[3]; [7]", "result": 99.4, "unit": "%"}
    ]},
    {"compound": "calcitonin", "values": [
      {"measurement": "effect of adding polar aprotic solvents such as DMSO on gelation of the formulation", "setting": "[2]", "result": "prevents gelation"}
    ]}
  ]
}
